# Reference: US20240025922A1, “TETRAHYDROPYRIDO[3,4-d]PYRIMIDINES AS HPK1 INHIBITORS” (Merck Patent GmbH, priority 2022, published 2024)
# pIC50: −log10 of the molar value. Where two headings read alike, the source gives them in different places.
# Assays:
# [1] = target: full-length human HPK1 (MAP4K1) (Homo sapiens (Human), UniProt Q92918); assay: HPK1 Kinase Assay (Biochemical Assay), ADP-Glo; details: GST-HPK1 3.2 nM, 10 μM ATP, MBP substrate, read-out: HPK1 enzymatic IC50
# Text: HPK1 Kinase Assay (Biochemical Assay).
# A recombinant fusion protein consisting of full-length human HPK1 (MAP4K1) with an N-terminal Glutatione S-transferase (GST) tag was produced in insect cells Sf21 using the baculovirus expression system. GST-HPK1 protein was purified from cell lysates by glutathione Sepharose affinity chromatography. The assay is run in three continuous steps: 1) the HPK1 enzymatic kinase reaction, 2) an ATP depletion, and 3) the ADP detection, the steps 2 and 3 are performed with ADP-Glo™ Kinase Assay kit from Promega (V9101). Test compounds were prepared by 10-point serial dilution in dimethyl sulfoxide (DMSO) and 100 nL of each dilution was spotted onto a 384-well Optiplate (Perkin Elmer and Cat #6007299) by Labcyte Echo. 5 μL kinase reaction buffer (0.02% Brij-35, 2 mM DTT, 50 mM HEPES pH 7.5, MgCl2 10 mM, BSA 0.01% and O-glycerophosphate 12.5 mM) containing HPK1 (3.2 nM) enzyme was transferred to each well and incubated for 15 minutes at room temperature at 60% humidity. The enzymatic reaction was started by adding 5 μl of Start-Mix (10 μM ATP and 3.235 μM MBP). After 120 minutes, the reaction was stopped by adding 5 μL of ADP-Glo reagent (Promega, V9101) and incubating for 40 min. in the dark at 23° C. To determine the level of ADP, 10 μl ADP-Glo Detection solution was added and incubated for 1 hour at 23° C. in the dark. The plate was transferred to a Perkin Elmer EnVision (2104 Multilabel Reader) for luminescence detection and percent inhibition activity and IC50 value were determined using Genedata Screener.
# [2] = target: HPK1 (SLP76 phosphorylation at Ser376 in Jurkat and EL-4 cells) (Homo sapiens, UniProt Q92918); assay type: cell-based
# Description: Cellular Assay—Phospho-SLP-76 (Ser376).
# Inhibition of HPK1 enzymatic activity in cells was determined by detection of SLP76 phosphorylation at Ser376 residue in lysate from Jurkat (human) and EL-4 (mouse) cells. Jurkat and EL-4 cells express both HPK1 and SLP76 naturally. All cells were cultured in RPMI 1640 media containing 10% heat inactivated fetal bovine serum (FBS) and 1×Penicillin-Streptomycin. In either Jurkat or El-4 assay, cells were pre-incubated with test compounds prior to T cell stimulation by respective αCD3/αCD28 Dynabeads™. For detection, plates were read on the Envision and percent inhibition and IC50 were determined by Smart fit in Genedata Analyzer.
# For Jurkat cells: 35 μL cell suspension were dispensed at a density of 30,000 cells/well in 384-well plates containing HBSS (Gibco, 14025076)+0.1% BSA). 10-point logarithmic serial dilution of test compounds in DMSO were prepared by a Hamilton automated liquid handling robot and 35 nL was transferred into each well by an Echo liquid handler. After 60 min. pre-incubation, the cells were stimulated by adding 5 μL human T activator αCD3/αCD28 Dynabeads™ (Gibco, 11132D) at 1.2×107 beads/mL for 15 minutes at 37° C. Detection of Ser376 phosphorylation status was accomplished by first adding 10 μL of 5×AlphaLISA lysis buffer (Perkin Elmer, ALSU-PSLP-A500) to each well of the cell plate using a Multidrop Combi (5840300), followed by 20 minutes shaking. 10 μL cell lysate from each treatment were then transferred to a white 384-well plate (Corning 3572) and incubated with AlphaLISA acceptor beads for one hour (AlphaLISA SureFire Ultra p-SLP76(Ser376), Perkin Elmer, ALSU-PSLP-A500), and donor beads for additional 2 hours at room temperature in the dark.
# For EL-4.IL2 assay, 50 μL cell suspension at 2×10^6 cells/mL in HBSS were first dispensed into 384-well plates and then 50 nL serial dilutions of test compounds were spotted to each well by an Echo liquid handler. After 60 min. incubation at 37° C., cells were stimulated by adding 5 μL mouse T cell activator αCD3/αCD28 Dynabeads™ (ThermFisher Scientific, 11452D) for 30 minutes at 37° C. After a brief spin and subsequent supernatant discarded, 12.5 μL of Cisbio lysis buffer were added to each well and plates were shaken for 30 min at 450 RPM. For detection, 4 μL prepared HTRF antibody mixture (Cisbio, 63ADK000U) in detection buffer were mixed with 16 μl of cell lysate and plates were incubated at room temperature for 19 hours prior to EnVision reading.
# [3] = αCD3/αCD28 Dynabeads stimulated cells, pSLP76 (Ser376) detection; read-out: HPK1 pSLP76 IC50
# full-length human HPK1 (MAP4K1), sequence (Q92918 whole entry): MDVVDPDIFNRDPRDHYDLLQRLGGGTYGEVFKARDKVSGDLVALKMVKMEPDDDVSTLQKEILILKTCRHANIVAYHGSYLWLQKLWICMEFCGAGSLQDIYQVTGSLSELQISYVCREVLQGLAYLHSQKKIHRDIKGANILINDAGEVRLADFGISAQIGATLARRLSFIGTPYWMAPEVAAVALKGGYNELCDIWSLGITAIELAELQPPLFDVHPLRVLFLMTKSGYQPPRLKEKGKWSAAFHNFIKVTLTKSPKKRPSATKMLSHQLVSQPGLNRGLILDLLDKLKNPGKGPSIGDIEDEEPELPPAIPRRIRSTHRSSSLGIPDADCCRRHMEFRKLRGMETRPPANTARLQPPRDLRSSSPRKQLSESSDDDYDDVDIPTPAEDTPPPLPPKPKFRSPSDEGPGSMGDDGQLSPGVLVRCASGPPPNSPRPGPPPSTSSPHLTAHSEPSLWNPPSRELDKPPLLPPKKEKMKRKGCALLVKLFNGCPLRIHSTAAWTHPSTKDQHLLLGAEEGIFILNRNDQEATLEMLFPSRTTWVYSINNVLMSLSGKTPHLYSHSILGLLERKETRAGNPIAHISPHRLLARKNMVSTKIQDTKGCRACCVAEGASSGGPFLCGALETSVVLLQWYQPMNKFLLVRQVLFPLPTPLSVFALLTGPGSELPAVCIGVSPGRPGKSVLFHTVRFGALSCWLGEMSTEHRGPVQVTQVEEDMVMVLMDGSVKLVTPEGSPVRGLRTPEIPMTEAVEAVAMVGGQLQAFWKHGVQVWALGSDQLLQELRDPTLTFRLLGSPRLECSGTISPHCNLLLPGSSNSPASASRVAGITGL
# HPK1 (SLP76 phosphorylation at Ser376 in Jurkat and EL-4 cells), sequence (Q92918 whole entry, looked up): as the sequence (Q92918 whole entry) above
Structure (SMILES),pIC50 [1],"pIC50 [2, 3]","pIC50 ([2]; read-out: HPK1 pSLP76 IC50; αCD3/αCD28 Dynabeads stimulated cells, pSLP76 (Ser376) detection)"
"Cc1c(N2CCc3cnc(Nc4ccc(NCCN(C)C)nc4)cc3C2)cnc2c1NCCO2 [Example 26, N2-[2-(dimethylamino)ethyl]-N5-(6-{8-methyl-1H,2H,3H-pyrido[2,3-b][1,4]oxazin-7-yl}-5,6,7,8-tetrahydro-2,6-naphthyridin-3-yl)pyridine-2,5-diamine]",> 7.00,6.00 to 6.30,–
"CCc1cc(Nc2ncc3c(n2)CN(c2cnc4c(c2C)NCCO4)CC3)ccc1N1CCC(O)CC1 [Example 80, 1-(2-ethyl-4-((7-(8-methyl-2,3-dihydro-1H-pyrido[2,3-b][1,4]oxazin-7-yl)-5,6,7,8-tetrahydropyrido[3,4-d]pyrimidin-2-yl)amino)phenyl)piperidin-4-ol]",> 7.00,6.00 to 6.30,–
"Cc1cc(Nc2cc3c(cn2)CCN(c2cnc4c(c2C)NCCO4)C3)ccc1NC(=O)CN1CCC1 [Example 9, 2-(azetidin-1-yl)-N-{2-methyl-4-[(6-{8-methyl-1H,2H,3H-pyrido[2,3-b][1,4]oxazin-7-yl}-5,6,7,8-tetrahydro-2,6-naphthyridin-3-yl)amino]phenyl}acetamide]",> 7.00,> 6.30,–
"Cc1c(N2CCc3cnc(Nc4cccc(CN5CCOCC5)c4)nc3C2)cnc2c1NCCO2 [Example 60, 7-{8-methyl-1H,2H,3H-pyrido[2,3-b][1,4]oxazin-7-yl}-N-{3-[(morpholin-4-yl)methyl]phenyl}-5H,6H,7H,8H-pyrido[3,4-d]pyrimidin-2-amine]",> 7.00,–,6.00 to 6.30
"Cc1c(N2CCc3cnc(Nc4ccc(OCS(C)(=O)=O)cc4)nc3C2)cnc2c1NCCO2 [Example 25, N-[4-(methanesulfonylmethoxy)phenyl]-7-{8-methyl-1H,2H,3H-pyrido[2,3-b][1,4]oxazin-7-yl}-5H,6H,7H,8H-pyrido[3,4-d]pyrimidin-2-amine]",> 7.00,> 6.30,–
"Cc1cc(Nc2ncc3c(n2)CN(c2cnc4c(c2C)NCCO4)CC3)ccc1C(=O)N1CC(N(C)C)C1 [Example 38, N,N-dimethyl-1-{2-methyl-4-[(7-{8-methyl-1H,2H,3H-pyrido[2,3-b][1,4]oxazin-7-yl}-5H,6H,7H,8H-pyrido[3,4-d]pyrimidin-2yl)amino]benzoyl}azetidin-3-amin]",> 7.00,< 6.00,–
"COCCNC(=O)c1ccc(Nc2ncc3c(n2)CN(c2cnc4c(c2C)NCCO4)CC3)cc1 [Example 44, N-(2-methoxyethyl)-4-[(7-{8-methyl-1H,2H,3H-pyrido[2,3-b][1,4]oxazin-7-yl}-5H,6H,7H,8H-pyrido[3,4-d]pyrimidin-2-yl)amino]benzamide]",> 7.00,> 6.30,–
"Cc1cc(Nc2cc3c(cn2)CCN(c2cnc4c(c2C)NCCO4)C3)ccc1NC(=O)CN1CCOCC1 [Example 34, N-{2-methyl-4-[(6-{8-methyl-1H,2H,3H-pyrido[2,3-b][1,4]oxazin-7-yl}-5,6,7,8-tetrahydro-2,6-naphthyridin-3-yl)amino]phenyl}-2-(morpholin-4-yl)acetamide]",> 7.00,> 6.30,–
"Cc1c(N2CCc3cnc(Nc4ccc(OC[C@@H]5COCCO5)cc4)nc3C2)cnc2c1NCCO2 [Example 90, (S)—N-(4-((1,4-dioxan-2-yl)methoxy)phenyl)-7-(8-methyl-2,3-dihydro-1H-pyrido[2,3-b][1,4]oxazin-7-yl)-5,6,7,8-tetrahydropyrido[3,4-d]pyrimidin-2-amine]",> 7.00,6.00 to 6.30,–
"Cc1cc(Nc2ncc3c(n2)CN(c2cnc4c(c2C)NCCO4)CC3)cnc1NCCN(C)C [Example 28, N2-[2-(dimethylamino)ethyl]-3-methyl-N5-(7-{8-methyl-1H,2H,3H-pyrido[2,3-b][1,4]oxazin-7-yl}-5H,6H,7H,8H-pyrido[3,4-d]pyrimidin-2-yl)pyridine-2,5-diamine]",> 7.00,6.00 to 6.30,–
"Cc1c(N2CCc3cnc(Nc4ccc5c(c4)CN(C)C5)nc3C2)cnc2c1NCCO2 [Example 104, 7-(8-methyl-2,3-dihydro-1H-pyrido[2,3-b][1,4]oxazin-7-yl)-N-(2-methylisoindolin-5-yl)-5,6,7,8-tetrahydropyrido[3,4-d]pyrimidin-2-amine]",> 7.00,> 6.30,–

# Second part, led by results:
pIC50 [1],"pIC50 [2, 3]",Structure (SMILES),"pIC50 ([2]; read-out: HPK1 pSLP76 IC50; αCD3/αCD28 Dynabeads stimulated cells, pSLP76 (Ser376) detection)"
> 7.00,> 6.30,"Cc1c(N2CCc3cnc(Nc4cc5n(n4)CC(=O)N(CC(F)F)CC5)cc3C2)cnc2c1NCCO2 [Example 140, 6-(2,2-difluoroethyl)-2-[(6-{8-methyl-1H,2H,3H-pyrido[2,3-b][1,4]oxazin-7-yl}-5,6,7,8-tetrahydro-2,6-naphthyridin-3-yl)amino]-4H,5H,6H,7H,8H-pyrazolo[1,5-d][1,4]diazepin-7-one]",–
> 7.00,> 6.30,"Cc1c(N2CCc3cnc(Nc4ccc(CC(=O)N5CCC5)cc4)nc3C2)cnc2c1NCCO2 [Example 163, 1-(azetidin-1-yl)-2-(4-((7-(8-methyl-2,3-dihydro-1H-pyrido[2,3-b][1,4]oxazin-7-yl)-5,6,7,8-tetrahydropyrido[3,4-d]pyrimidin-2-yl)amino)phenyl)ethan-1-one]",–
> 7.00,6.00 to 6.30,"Cc1c(N2CCc3cnc(Nc4ccc(C5CCN(C)CC5)c(CC#N)c4)nc3C2)cnc2c1NCCO2 [Example 112, 2-(5-((7-(8-methyl-2,3-dihydro-1H-pyrido[2,3-b][1,4]oxazin-7-yl)-5,6,7,8-tetrahydropyrido[3,4-d]pyrimidin-2-yl)amino)-2-(1-methylpiperidin-4-yl)phenyl)acetonitrile]",–
> 7.00,< 6.00,"Cc1c(N2CCc3cnc(Nc4ccc(CS(C)(=O)=O)cc4)nc3C2)cnc2c1NCCC2=O [Example 142, 7-(2-{[4-(methanesulfonylmethyl)phenyl]amino}-5H,6H,7H,8H-pyrido[3,4-d]pyrimidin-7-yl)-8-methyl-1,2,3,4-tetrahydro-1,5-naphthyridin-4-one]",–
–,< 6.00,"COc1cccc(F)c1N1CCc2cnc(Nc3cnc4c(c3)CN(C)CC4)nc2C1 [Example 120, 7-(2-fluoro-6-methoxyphenyl)-N-(6-methyl-5,6,7,8-tetrahydro-1,6-naphthyridin-3-yl)-5,6,7,8-tetrahydropyrido[3,4-d]pyrimidin-2-amine]",–
> 7.00,> 6.30,"Cc1c(N2CCc3cnc(Nc4ccc(CS(=O)(=O)CCN(C)C)cc4)nc3C2)cnc2c1NCCO2 [Example 154, N-(4-{[2-(dimethylamino)ethanesulfonyl]methyl}phenyl)-7-{8-methyl-1H,2H,3H-pyrido[2,3-b][1,4]oxazin-7-yl}-5H,6H,7H,8H-pyrido[3,4-d]pyrimidin-2-amine]",–
> 7.00,6.00 to 6.30,"CNC(=O)c1ccc(Nc2ncc3c(n2)CN(c2cnc4c(c2Cl)NCCO4)CC3)cc1C [Example 130, 4-[(7-{8-chloro-1H,2H,3H-pyrido[2,3-b][1,4]oxazin-7-yl}-5H,6H,7H,8H-pyrido[3,4-d]pyrimidin-2-yl)amino]-N,2-dimethylbenzamide]",–
